Experimental data as given in patent publication US6696268B1, “Production and use of antimicrobial agents” (Pantherix, Ltd., priority 1998, dated 2004).

Legend:
[1] = system: dihydrofolate reductase (DHFR); details: bacterial vs mammalian DHFR; competes with substrate dihydrofolate; cited from earlier work
E. coli PPAT = target: T1, E. coli PPAT (Escherichia coli, UniProt P0A6I6); test: Assay for inhibitors of E. coli PPAT (pyrophosphate-dependent cleavage of dephosphocoenzyme A, coupled spectrophotometric assay at 340 nm); assay type: biochemical; details: test compound at 0.05 mM, 25° C., compared with control without inhibitor
T1 construct: made in house; host or cells: E. coli (plasmid pUC/PPAT, pUC19 backbone)
Description: The activity of the PPAT enzyme was assayed by monitoring the pyrophosphate dependent cleavage of dephosphocoenzyme A which produced ATP and phosphopantetheine. The reaction contains in a final volume of 1 ml: 50 mM Tris-HCl containing 2 mM tetrasodium pyrophosphate, pH 8.0; 1 mM dithiothreitol; 1 mM NADP; 2 mM MgCl2; 5 mM glucose; 9 μg yeast hexokinase; and 7 μg yeast glucose 6-phosphate dehydrogenase. Reactions were monitored spectrophotometrically at 25° C. by following the increase in absorbance at 340 nm.
Inhibition studies were carried out using the reaction conditions described above. Test compounds were added to a final concentration of 0.05 mM, and the percentage inhibition determined by comparison with a control in which no test inhibitor is present.

T1 sequence (P0A6I6 whole entry): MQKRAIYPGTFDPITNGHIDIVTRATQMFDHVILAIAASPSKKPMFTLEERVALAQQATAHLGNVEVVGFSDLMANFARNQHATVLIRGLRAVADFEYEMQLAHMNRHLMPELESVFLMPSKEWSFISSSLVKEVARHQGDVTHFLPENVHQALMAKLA

SMILES	bound more tightly by bacterial than mammalian forms of DHFR [1]	inhibition at 50 µM (E. coli PPAT) [%]
COc1cc(Cc2cnc(N)nc2N)cc(OC)c1OC [trimethoprim]	50,000 fold	–
O=C1CC(=O)c2ccc3c4c(ccc1c24)C(=O)CC3=O [1,2,3,6,7,8-hexahydropyrene-1,3,6,8-tetraone]	–	~60
